Patent publication US8058242B2, “Chimeric proteins with natriuretic activity” (The University of Queensland, priority 2004, dated 2011)
Positions of bridges follow the written chain, without caps; N, C: chain ends. Residues, ends and D or L forms follow the SMILES beside them.

Experiments:
Plasmin = target: T1, Plasmin (Homo sapiens, UniProt P00747); assay: Stability to enzymatic degradation by plasmin (Examples 7, 16); assay type: in vitro ADME; details: plasmin, 37° C.
T1 construct: with 500 ng Endopeptidase (NEP) or 10 μg Plasmin
T1 sequence (P00747 97-580 partner limits assumed, species assumed): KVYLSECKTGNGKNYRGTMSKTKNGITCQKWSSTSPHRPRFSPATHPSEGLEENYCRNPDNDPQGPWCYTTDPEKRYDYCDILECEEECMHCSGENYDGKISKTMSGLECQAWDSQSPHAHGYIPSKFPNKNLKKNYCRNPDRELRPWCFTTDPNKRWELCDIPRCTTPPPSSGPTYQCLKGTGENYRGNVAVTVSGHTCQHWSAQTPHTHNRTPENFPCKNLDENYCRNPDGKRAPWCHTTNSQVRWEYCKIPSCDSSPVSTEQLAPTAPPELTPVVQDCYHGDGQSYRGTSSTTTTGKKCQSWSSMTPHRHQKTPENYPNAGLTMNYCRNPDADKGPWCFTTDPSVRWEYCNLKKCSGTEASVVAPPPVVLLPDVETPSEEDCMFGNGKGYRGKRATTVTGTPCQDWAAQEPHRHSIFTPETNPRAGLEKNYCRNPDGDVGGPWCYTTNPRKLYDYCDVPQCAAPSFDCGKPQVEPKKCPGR
T1 sequence (P00747 581-810 limits assumed, species assumed): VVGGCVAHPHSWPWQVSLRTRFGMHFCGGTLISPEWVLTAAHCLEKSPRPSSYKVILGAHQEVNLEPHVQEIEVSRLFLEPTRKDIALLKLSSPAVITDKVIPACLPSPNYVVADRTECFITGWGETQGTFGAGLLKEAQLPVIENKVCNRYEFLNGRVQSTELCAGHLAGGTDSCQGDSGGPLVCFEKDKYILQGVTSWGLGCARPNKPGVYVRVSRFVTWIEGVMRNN
Procedure, shortened: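 Peptide (100 μl of 500 μM) was incubated at 37 °C in 100 mM Tris/HCl, 150 mM NaCl, pH 7.2-7.4 with 500 ng NEP or 10 μg plasmin. Samples were taken from 5 min to 24 h and heat-quenched at 100 °C for 4 min. Remaining peptide was measured by RP-HPLC.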

[1] = tested on: endothelium-intact aortic rings (NPR-C mediated); assay: Aortic ring relaxation, endothelium-intact rings pre-contracted with 40 mM KCl (Example 3); set-up: species or system rat; details: endothelium-intact rat aortas pre-contracted with 40 mM KCl; peptide 0.1 μM
Protocol: (§1) Male Sprague Dawley rats were killed and the descending thoracic aorta rapidly removed and flushed with physiological solution. After being cleared of adhering fat and connective tissue, 5 mm rings were mounted under 10 g resting tension, between two stainless steel hooks, in organ baths (37° C.) containing carbogenated (95% O2 and 5% CO2) physiological salt solution of the following composition (mM): NaCl, 118.4; NaHCO3, 25; glucose, 11; KCl, 4.7; MgSO4, 1.2; KH2PO4, 1.2 and CaCl2, 2.5. The lower hook was attached to a tissue holder and the upper hook to a force displacement transducer (Grass FTO3). Where indicated endothelial cells were removed by gentle rubbing of the intimal surface with a wire. To confirm the presence or absence of endothelial cells, tissues were precontracted with a sub-maximal concentration of phenylephrine (0.3 μM) and the response to acetylcholine (ACh, 10 μM) observed. Ach-induced relaxation greater than 80% of maximum indicated the presence of endothelium; whereas Ach-induced relaxation less than 10% indicated the absence of endothelium. Ring preparations under resting tension were conditioned by two contraction/relaxation cycles with 40 mM KCl, contracted by a third application of 40 mM KCl and then relaxed with different doses of the venom peptides. Responses were expressed as a percentage relaxation of the precontraction by KCl.

conscious rabbits = assay: Blood pressure and heart rate in conscious rabbits, intravenous infusion dose-response (Example 8); details: for Diastolic BP, mean difference from control / HR, mean difference from control / Mean BP, mean difference from control / Systolic BP, mean difference from control: 45 min
[2] = tested on: endothelium-denuded aortic rings (GC-A mediated); assay: Aortic ring relaxation, endothelium-denuded rings pre-contracted with 40 mM KCl (Example 3); set-up: species or system rat; details: endothelium-denuded rat aortas pre-contracted with 40 mM KCl; peptide 0.1 μM
Protocol: as §1

[3] = target: T2, Natriuretic Peptide Receptor-A (NPR-A) signaling in MDCK cells (Canis lupus familiaris, UniProt A0A8I3MHU3); assay type: cell-based, canine; details: stimulation of cGMP accumulation in MDCK cells
T2 sequence (A0A8I3MHU3 32-1060): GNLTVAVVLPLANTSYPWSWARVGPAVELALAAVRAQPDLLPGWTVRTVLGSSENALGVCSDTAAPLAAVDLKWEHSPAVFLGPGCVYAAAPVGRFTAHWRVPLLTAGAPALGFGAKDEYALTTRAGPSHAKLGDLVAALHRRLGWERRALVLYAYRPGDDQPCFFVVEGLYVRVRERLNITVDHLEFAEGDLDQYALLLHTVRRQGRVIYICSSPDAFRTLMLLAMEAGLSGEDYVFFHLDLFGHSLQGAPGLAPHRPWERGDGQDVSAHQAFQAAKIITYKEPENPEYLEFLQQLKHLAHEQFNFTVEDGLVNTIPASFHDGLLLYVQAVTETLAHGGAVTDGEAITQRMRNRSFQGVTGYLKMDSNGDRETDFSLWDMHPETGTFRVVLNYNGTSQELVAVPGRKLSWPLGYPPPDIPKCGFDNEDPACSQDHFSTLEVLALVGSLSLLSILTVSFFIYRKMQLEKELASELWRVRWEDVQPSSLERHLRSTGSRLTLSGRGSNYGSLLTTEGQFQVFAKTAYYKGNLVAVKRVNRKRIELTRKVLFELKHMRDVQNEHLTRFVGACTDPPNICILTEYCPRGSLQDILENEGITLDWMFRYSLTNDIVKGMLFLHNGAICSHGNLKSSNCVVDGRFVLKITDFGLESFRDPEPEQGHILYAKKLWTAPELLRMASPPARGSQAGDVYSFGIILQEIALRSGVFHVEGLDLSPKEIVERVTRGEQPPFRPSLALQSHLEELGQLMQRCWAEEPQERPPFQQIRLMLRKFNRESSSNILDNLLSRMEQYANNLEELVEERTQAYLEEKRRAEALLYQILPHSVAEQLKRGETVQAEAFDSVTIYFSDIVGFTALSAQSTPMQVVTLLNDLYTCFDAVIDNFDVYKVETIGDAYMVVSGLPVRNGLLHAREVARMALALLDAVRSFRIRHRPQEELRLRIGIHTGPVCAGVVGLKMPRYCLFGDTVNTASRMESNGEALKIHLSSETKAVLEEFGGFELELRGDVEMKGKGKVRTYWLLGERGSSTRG

[4] = after 1 hour recovery period, Table 10A
[5] = average of the 3 doses 1.0, 2.0, 4.0 μg/kg/min

## CC[C@H](C)[C@@H]1NC(=O)[C@H](CCCCN)NC(=O)[C@H](Cc2c[nH]cn2)NC(=O)CNC(=O)[C@H](Cc2ccccc2)NC(=O)[C@@H](NC(=O)[C@@H]2CCCN2C(=O)[C@H](CC(=O)O)NC(=O)[C@H](Cc2ccc(O)cc2)NC(=O)[C@H](CCCCN)NC(=O)[C@@H](NC(=O)[C@@H](N)CCC(=O)O)C(C)C)CSSC[C@@H](C(=O)N2CCC[C@H]2C(=O)N[C@@H](CO)C(=O)N[C@@H](CC(C)C)C(=O)N[C@@H](CCCNC(=N)N)C(=O)N[C@@H](CC(=O)O)C(=O)N2CCC[C@H]2C(=O)N[C@@H](CCCNC(=N)N)C(=O)N2CCC[C@H]2C(=O)N[C@@H](CC(N)=O)C(=O)N[C@@H](C)C(=O)N2CCC[C@H]2C(=O)N[C@@H](CO)C(=O)N[C@H](C(=O)N[C@@H](CO)C(=O)N[C@@H](C)C(=O)O)[C@@H](C)O)NC(=O)CNC(=O)[C@H](CC(C)C)NC(=O)[C@H](CC(N)=O)NC(=O)[C@H](CO)NC(=O)[C@H](C(C)C)NC(=O)[C@H](Cc2c[nH]cn2)NC(=O)[C@H](CC(N)=O)NC(=O)[C@H]([C@@H](C)CC)NC(=O)[C@H](CCCNC(=N)N)NC(=O)[C@H](CC(=O)O)NC1=O [DNP, reference compound] (H-EVKYDPCFGHKIDRINHVSNLGCPSLRDPRPNAPSTSA-OH; disulfide 7-23; N-terminus and C-terminus assumed)
Plasmin; plasmin in Tris/HCl-NaCl buffer, read-out: HalfLife in plasmin
  half-life at 125 μM: 29.1 min
Plasmin
  K (one phase exponential decay, best fit values): 0.02381
  PLATEAU (one phase exponential decay, best fit values): 0.1675
  SPAN (one phase exponential decay, best fit values): 0.7306
[1]
  percentage relaxation of the precontraction by KCl: ~100%
Conscious rabbits; [4]
  Recovery (MAP): 61.4 mm Hg
  Recovery Delta SED (MAP): 2.5 ± 1.1 mm Hg
Conscious rabbits; [5]
  Diastolic BP, Average Response SED: −9.0 ± 0.9 mmHg
  HR, Average Response SED: 17.3 ± 6.4 bpm
  Mean BP (MAP), Average Response SED: −14.2±0.8 mmHg
  Systolic BP, Average Response SED: −13.3 ± 0.8 mmHg
Conscious rabbits; highest dose, Table 10A
  MAP at final dose: 58.9 mm Hg
Conscious rabbits; highest dose, Table 10A, groups 1, 2A and 3
  Treatment Effect, change of mean blood pressure during the infusion: −17.2 mm Hg
Conscious rabbits; i.v. infusion 1.0 μg/kg/min
  Diastolic BP, mean difference from control: −8.5 mmHg
  HR, mean difference from control: 17.5 bpm
  Mean BP, mean difference from control: −13.0 mmHg
  Systolic BP, mean difference from control: −11.7 mmHg
Conscious rabbits; i.v. infusion 2.0 μg/kg/min
  Diastolic BP, mean difference from control: −6.9 mmHg
  HR, mean difference from control: 25.9 bpm
  Mean BP, mean difference from control: −12.6 mmHg
  Systolic BP, mean difference from control: −11.9 mmHg
Conscious rabbits; i.v. infusion 4.0 μg/kg/min
  Diastolic BP, mean difference from control: −11.7 mmHg
  HR, mean difference from control: 8.5 bpm
  Mean BP, mean difference from control: −17.2 mmHg
  Systolic BP, mean difference from control: −16.4 mmHg
[2]
  percentage relaxation of the precontraction by KCl: ~100%
[3]
  −Log10 EC50 (pEC50) ± Standard Error: 8.080 ± 1.411
